# Test results as given in US20160089545A1, “METHODS AND APPARATUS FOR DELIVERY OF MOLECULES ACROSS LAYERS OF TISSUE” (EP Technologies LLC, priority 2013, published 2016).
# Where two headings read alike, the source gives them in different places.
# Method: In this example, a vertical Franz diffusion apparatus (PermeGear Inc, PA) was used for all transport studies. Human skin samples with intact stratum corneum (SC) from back and thigh region were used, which were split thickness (dermatome 250 μm). The skin was kept at −80° C. until the day of treatment. On the day of treatment the skin was thawed to room temperature and kept in a humidified box for 1 hour. The skin was washed with water and pat-dried with paper towels. The skin was cut in to 1″×1″ pieces and was placed between the donor and receiver compartments with temperature maintained at 37±1° C. using water circulator. Effective surface area for transport studies were kept constant at 1.77 cm^2. The receiver compartment was filled with 10 mL of freshly prepared phosphate buffered saline (PBS) (pH 7.4) and donor compartment with 0.5-1.0 mL of permeant solution. One mL samples were withdrawn from the receiver compartment at pre-determined time points and estimated for propofol using high performance liquid chromatography.
# In vitro permeation studies were carried out using the experimental setup described above. Drugs reconstituted in water or buffer at 10 mg/mL concentration in the donor compartment was used for transport studies across the human skin, Permeation studies were carried out for a period of 3-6 h and samples were analyzed for using HPLC technique.
# In some experiments, the human skin was treated with non-thermal DBD plasma for periods of time up to about 1 min and the following plasma power source parameters were varied: the frequency (Hz) was varied between about 100 and about 3500 Hz, the voltage was varied from about 11 kV to 20 kV, the pulse duration was varied between about 1 and about 10 μs, the duty cycle was varied between about 1 to about 100%, and the time of treatment ranged from between about 0.5 to about 1 minutes. […] Three different runs were carried out, the first in which the plasma generator was operated with a frequency of 2500 Hz, pulse duration of 1 μs, voltage of 15 kV and 100% duty cycle (which corresponds to setting 7100 in FIG. 10), the second with the plasma generator operated with a frequency of 2500 Hz, pulse duration of 5 μs, voltage of 17 kV and 100% duty cycle (which corresponds to setting 7500 in FIG. 10), and the third with the plasma generator operated with frequency of 3500 Hz, pulse duration of 5 μs, voltage of 19 kV and 100% duty cycle (which corresponds to setting 9500 in FIG. 10). A fourth control run was also carried out in which the skin sample was not subjected to plasma treatment before being contacted with the nicotine-containing test formulation.
structure (smiles),measurement,setting,value
CN1CCCC1c1cccnc1 (stereo not shown) [nicotine],factor of enhancement of transdermal delivery as compared with the control,"3 hour permeation period, 3500 Hz, pulse duration 5 μs, 19 kV, 100% duty cycle (setting 9500)",approximately 33
Cn1c(=O)c2c(ncn2C)n(C)c1=O [caffeine],factor of enhancement of transdermal delivery as compared with the control,"human, 4 h, 10 mg/mL, pH 7.4",approximately 7
O=C(O)Cc1ccccc1Nc1c(Cl)cccc1Cl [diclofenac sodium],factor of enhancement of transdermal delivery,"human, 4 h, 10 mg/mL, pH 7.4",approximately 2
same,factor of enhancement of transdermal delivery,"human, 4 h, pH 7.4",about 4
